The results in this text go back to ChEMBL document CHEMBL1201862, “PubChem BioAssay data set” (2004).

Test systems include SR; OVCAR-4; A549; 786-0; MCF7; U-251; OVCAR-5; HOP-92; PC-3; SK-MEL-28; COLO 205; SK-OV-3; A498; HCT-15; SW-620; HCT-116; SK-MEL-5; RPMI-8226; UO-31; RXF 393.
What all share (experiment): NCI anticancer screen, dose series, 48 h

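Five concentrations, 48 hours, 96-well plates. Abbreviation: GI50, concentration required for 50% inhibition of growth.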 Activity calls are given as the source filed them. No stated cut-off is given here; in the data, active = GI50 up to about 1.1 µM and inactive = higher.

For the compound `CC1(C)CC(=O)/C(=C/C2CCNC2=S)C(=O)N1` (configuration not stated), the GI50 in the experiment on SR, in the experiment with OVCAR-4, in the experiment with A549, in the experiment on 786-0, with MCF7 and with U-251 was > 100 µM (inactive) each time. In addition, the GI50 in the experiment on OVCAR-5, with HOP-92, in the experiment with PC-3, with SK-MEL-28, in the experiment on COLO 205 and in the experiment with SK-OV-3 was > 100 µM (inactive) throughout. The GI50 in the experiment with A498 is > 100 µM (inactive); with HCT-15 it was above 100 µM; with SW-620, > 100 µM (inactive); in the experiment with HCT-116, > 100 µM (inactive); in the experiment with SK-MEL-5, > 100 µM (inactive); in the experiment with RPMI-8226, > 100 µM (inactive). Also, the GI50 with UO-31 is > 100 µM (inactive).
For the compound `Cc1ccc2c3c1O[C@H]1c4[nH]c5ccccc5c4C[C@@]4(O)[C@@H](C2)N(C)CC[C@]314`, the GI50 in the experiment with SR is 13.7 µM (inactive); in the experiment on OVCAR-4, 16.9 µM (inactive); in the experiment on A549, 17 µM (inactive); in the experiment with 786-0 it was 15.6 µM (inactive); with RXF 393, 10.1 µM (inactive); with MCF7, 16 µM (inactive). Moreover, the GI50 in the experiment on U-251 is 16 µM (inactive); in the experiment on OVCAR-5, 20.7 µM (inactive); in the experiment on HOP-92 it was 9.08 µM (inactive); in the experiment on PC-3 it was 17.3 µM (inactive); in the experiment on COLO 205, 14.4 µM (inactive); in the experiment on A498, 17 µM (inactive). The GI50 with HCT-15 is 17.2 µM; in the experiment on SW-620 it was 15 µM (inactive); in the experiment with HCT-116 it was 16.6 µM (inactive); in the experiment on SK-MEL-5, 14.5 µM (inactive); in the experiment on RPMI-8226 it was 14.1 µM (inactive); in the experiment with UO-31, 13.7 µM (inactive).
Turning to `Cn1c2ccccc2c(=NNc2ccc(S(=O)(=O)N=C(N)N)cc2)c2ccccc21`, the GI50 was 5.01 µM (inactive) with SR; 3.37 µM (inactive) in the experiment on OVCAR-4; 10 µM (inactive) with A549; 5.98 µM (inactive) in the experiment with 786-0; 0.611 µM (active) with RXF 393; 3.14 µM (inactive) in the experiment with MCF7. Further, the GI50 is 8.02 µM (inactive) with U-251; 6.24 µM (inactive) with OVCAR-5; 12.1 µM (inactive) in the experiment with HOP-92; 7.94 µM (inactive) in the experiment on PC-3; 5.53 µM (inactive) with COLO 205; 8.93 µM (inactive) in the experiment with SK-OV-3. For the same compound, the GI50 with HCT-15 is 10.2 µM; in the experiment on SW-620, 7.55 µM (inactive); in the experiment on HCT-116, 5.65 µM (inactive); in the experiment with SK-MEL-5, 5.41 µM (inactive); in the experiment on RPMI-8226 it was 7.8 µM (inactive); in the experiment with UO-31, 4.33 µM (inactive).
In the case of `CC(=O)OC12CC(C(F)(F)F)(C(F)(F)F)OC1(OC(C)=O)CC(C(F)(F)F)(C(F)(F)F)O2` (configuration not stated), the GI50 is 2.55 µM (inactive) in the experiment on SR; 4.23 µM (inactive) in the experiment with OVCAR-4; 1.26 µM (inactive) in the experiment with A549; 2.9 µM (inactive) in the experiment on 786-0; 11.5 µM (inactive) in the experiment on RXF 393; 0.426 µM (active) with MCF7. For the same compound, the GI50 in the experiment with U-251 is 1.63 µM (inactive); in the experiment on OVCAR-5 it was 9.29 µM (inactive); in the experiment on PC-3, 0.805 µM (active); in the experiment with SK-MEL-28, 4.54 µM (inactive); in the experiment on COLO 205 it was 3.95 µM (inactive); in the experiment on SK-OV-3 it was 4.94 µM (inactive). In addition, the GI50 is 2.14 µM (inactive) in the experiment with A498; 11.5 µM with HCT-15; 5.43 µM (inactive) in the experiment on SW-620; 3.66 µM (inactive) in the experiment on HCT-116; 0.385 µM (active) in the experiment with SK-MEL-5; 0.7 µM (active) with RPMI-8226. In addition, the GI50 in the experiment on UO-31 was 1.36 µM (inactive).
In the case of `O=C(Cn1nnc(-c2ccccc2)n1)N/N=C/c1cn(Cc2ccc(Cl)cc2Cl)c2ccccc12`, the GI50 was 63.1 µM (inactive) in the experiment with SR; > 100 µM (inactive) in the experiment on OVCAR-4; 51.5 µM (inactive) with A549; 36.9 µM (inactive) with 786-0; > 100 µM (inactive) with MCF7; > 100 µM (inactive) with U-251. In addition, the GI50 was > 100 µM (inactive) with OVCAR-5; > 100 µM (inactive) in the experiment on HOP-92; > 100 µM (inactive) in the experiment on PC-3; > 100 µM (inactive) with COLO 205; > 100 µM (inactive) in the experiment with SK-OV-3; 75.5 µM (inactive) with A498. In addition, the GI50 with HCT-15 was above 100 µM; with SW-620 it was 58.3 µM (inactive); in the experiment on HCT-116, > 100 µM (inactive); in the experiment on SK-MEL-5, > 100 µM (inactive); with RPMI-8226, > 100 µM (inactive); in the experiment on UO-31 it was > 100 µM (inactive).
As to `CC(=O)OC1C2CCC3C(C)(O)C4CC(O)C(C)(C)C4(O)C(O)CC13CC2(C)O` (configuration not stated), the GI50 in the experiment with SR, with OVCAR-4, with A549, in the experiment with 786-0, in the experiment with MCF7 and in the experiment with OVCAR-5 was > 100 µM (inactive) throughout. In addition, the GI50 with HOP-92 was > 100 µM (inactive); with PC-3, > 100 µM (inactive); with COLO 205 it was > 100 µM (inactive); in the experiment on SK-OV-3, > 100 µM (inactive); with A498, > 100 µM (inactive); in the experiment with HCT-15, above 100 µM. The GI50 with HCT-116, with SK-MEL-5, in the experiment with RPMI-8226 and in the experiment on UO-31 was > 100 µM (inactive) each time.
For `c1ccc2c(c1)cc1ccc3cccc4ccc2c1c34`, the GI50 was > 100 µM (inactive) with SR; > 100 µM (inactive) in the experiment with A549; > 100 µM (inactive) with 786-0; > 100 µM (inactive) in the experiment on RXF 393; 0.134 µM (active) in the experiment on MCF7; > 100 µM (inactive) in the experiment on U-251. The GI50 was > 100 µM (inactive) in the experiment with HOP-92; > 100 µM (inactive) with PC-3; > 100 µM (inactive) in the experiment with SK-MEL-28; > 100 µM (inactive) in the experiment with COLO 205; > 100 µM (inactive) in the experiment with SK-OV-3; 6.05 µM in the experiment on HCT-15. Also, the GI50 in the experiment on SW-620, in the experiment with HCT-116, in the experiment with SK-MEL-5, with RPMI-8226 and in the experiment with UO-31 was > 100 µM (inactive) throughout.
Take `N#C[BH2-][n+]1cn(C2CC(O)C(COP(=O)(O)OC3CC(n4cnc5c(=O)[nH]c(N)nc54)OC3CO)O2)c2nc(N)[nH]c(=O)c21` (configuration not stated): the GI50 was 1 µM (active) in the experiment on SR; > 100 µM (inactive) in the experiment on OVCAR-4; > 100 µM (inactive) in the experiment on A549; > 100 µM (inactive) with 786-0; 97.3 µM (inactive) in the experiment with RXF 393; 39.5 µM (inactive) in the experiment on MCF7. For the same compound, the GI50 is > 100 µM (inactive) in the experiment with U-251; > 100 µM (inactive) with OVCAR-5; > 100 µM (inactive) in the experiment on HOP-92; 66.4 µM (inactive) in the experiment on PC-3; > 100 µM (inactive) in the experiment with SK-MEL-28; > 100 µM (inactive) in the experiment on COLO 205. Further, the GI50 is > 100 µM (inactive) in the experiment on A498; above 100 µM in the experiment with HCT-15; > 100 µM (inactive) in the experiment with SW-620; > 100 µM (inactive) in the experiment on HCT-116; > 100 µM (inactive) in the experiment with SK-MEL-5; > 100 µM (inactive) in the experiment on UO-31.
As to `Cc1ccc(NC(=O)NC(=O)c2ccc([N+](=O)[O-])cc2[N+](=O)[O-])cc1Oc1ncc(Cl)cn1`, the GI50 in the experiment with SR is 0.409 µM (active); with OVCAR-4, 11.4 µM (inactive); in the experiment with A549 it was 0.542 µM (active); with 786-0, 0.466 µM (active); in the experiment on RXF 393 it was 0.175 µM (active); with MCF7, 0.164 µM (active). For the same compound, the GI50 was 0.208 µM (active) with U-251; 0.828 µM (active) in the experiment with OVCAR-5; 0.117 µM (active) with PC-3; 2.9 µM (inactive) in the experiment with SK-MEL-28; 0.415 µM (active) in the experiment on COLO 205; 0.908 µM (active) with SK-OV-3. For the same compound, the GI50 is 0.5 µM (active) with A498; 0.44 µM in the experiment on HCT-15; 0.332 µM (active) in the experiment with SW-620; 0.333 µM (active) in the experiment with HCT-116; 0.195 µM (active) with SK-MEL-5; 0.292 µM (active) with RPMI-8226. The GI50 in the experiment on UO-31 was 0.735 µM (active).
As to `CCOC(=O)c1[nH]c2cccc3c2c1CC[C@H](NC(=O)C(F)(F)F)C3=O`, the GI50 was > 100 µM (inactive) in the experiment with SR; 24.7 µM (inactive) in the experiment on OVCAR-4; 28.8 µM (inactive) in the experiment with A549; 31.2 µM (inactive) in the experiment on 786-0; 73.1 µM (inactive) in the experiment with MCF7; 22.5 µM (inactive) in the experiment on U-251. In addition, the GI50 is > 100 µM (inactive) in the experiment with OVCAR-5; 22.6 µM (inactive) in the experiment on HOP-92; 64.6 µM (inactive) in the experiment with PC-3; < 0.01 µM (active) in the experiment with SK-MEL-28; > 100 µM (inactive) with COLO 205; 43.7 µM (inactive) in the experiment on A498. In addition, the GI50 was above 100 µM with HCT-15; 76.7 µM (inactive) with SW-620; 35.6 µM (inactive) in the experiment on HCT-116; 22.5 µM (inactive) with SK-MEL-5; > 100 µM (inactive) in the experiment with RPMI-8226; > 100 µM (inactive) in the experiment on UO-31.
With `COC12OC3(C4OC41)C(C(=O)O[C@H]3CO[Si](C)(C)C(C)(C)C)C2S(=O)(=O)c1ccccc1` (some centres not stated), the GI50 in the experiment on SR is 2.63 µM (inactive); in the experiment on A549, > 4.65 µM (inactive); in the experiment on 786-0 it was 2.89 µM (inactive); in the experiment on RXF 393, < 0.01 µM (active); in the experiment with MCF7, 4.1 µM (inactive); in the experiment with U-251, > 4.65 µM (inactive). The GI50 was > 4.65 µM (inactive) with OVCAR-5; 3.27 µM (inactive) in the experiment on HOP-92; > 4.65 µM (inactive) in the experiment with PC-3; 3.48 µM (inactive) with SK-MEL-28; 21.9 µM (inactive) in the experiment on COLO 205; > 4.65 µM (inactive) with SK-OV-3. For the same compound, the GI50 is 3.16 µM in the experiment on HCT-15; 1.52 µM (inactive) with SW-620; 4.16 µM (inactive) in the experiment on HCT-116; 1.67 µM (inactive) in the experiment with RPMI-8226; > 4.65 µM (inactive) in the experiment on UO-31.
